The text below walks through data of publication PMC12300298, “Expanding the Antiviral Spectrum of Scorpion-Derived Peptides Against Toscana Virus and Schmallenberg Virus” (Pathogens, 2025).

One data set relates to CRFK cells. The experiment in a line: MTT cytotoxicity, CRFK cells. The note with it: 24 h peptide treatment, 3-200 µM, 37 °C, absorbance 570 nm, nonlinear regression, at least three independent experiments. It is filed as cell-based, feline. The method, then:
(§1) BHK-21, U-87 MG, A-72, and CRFK cells were seeded in 96-well plates at an initial density of 2 × 10^4 cells per well and incubated for 24 h at 37 °C. Then, serial dilutions of peptides ranging from 3 to 200 µM were added to the cell monolayer and incubated for 24 h at 37 °C. Cytotoxicity was evaluated by adding 5 μL of methylthiazolyldiphenyl-tetrazolium bromide (MTT; cod. M2003, Sigma-Aldrich, St. Louis, MO, USA) to each well. After 4 h of incubation, the plate was emptied, and formazan crystals were solubilized with dimethyl sulfoxide (DMSO; 100%). Cell viability was calculated by measuring absorbance at 570 nm using a microplate reader. The negative control (CTRL−, toxicity control) consisted of cells treated with DMSO, while the positive control (CTRL+, viable cells) included untreated cells.
(§2) All tests were performed in triplicate and expressed as mean ± standard deviation (SD). Graphs and statistical analysis were generated using GraphPad Prism version 9.5.1 for macOS (GraphPad Software, San Diego, CA, USA, www.graphpad.com, accessed on 5 February 2025). The 50% cytotoxic concentration (CC50) and the 50% inhibitory concentration (IC50) were calculated by nonlinear regression analysis based on dose–response curves generated from at least three independent experiments.

Data set [1] has as its system SBV. The note with it: 1 h.
The subject of the next data set is U-87 MG cells. As to the kind of experiment: MTT cytotoxicity, U-87 MG cells. Type of data set: cell-based, human. To be noted: 24 h peptide treatment, 3-200 µM, 37 °C, absorbance 570 nm, nonlinear regression, at least three independent experiments. As for the experimental part:
as §1, §2

Data set [2] relates to TOSV. To be noted: 24 h.
The next data set relates to A-72 cells. As to the kind of experiment: MTT cytotoxicity, A-72 cells. The note with it: 24 h peptide treatment, 3-200 µM, 37 °C, absorbance 570 nm, nonlinear regression, at least three independent experiments. It is filed as cell-based, canine. As for the experimental part:
as §1, §2

Data set [3] relates to TOSV. To be noted: 24 h. This is another data set of the same source.
The subject of data set [4] is BHK-21, A-72, CRFK, and U-87 MG cells. As to the kind of experiment: MTT cytotoxicity, statements for all tested cell lines. It is filed as cell-based. To be noted: 24 h, concentrations of 50 μM and below. The method, then: as §1
Data set [5] concerns TOSV. The note with it: 24 h. The source holds these as a separate data set.
A further data set has as its system BHK-21 cells. As to the kind of experiment: MTT cytotoxicity, BHK-21 cells. Type of data set: cell-based, hamster. To be noted: 24 h peptide treatment, 3-200 µM, 37 °C, absorbance 570 nm, nonlinear regression, at least three independent experiments. The method, then:
as §1, §2

In data set [6] the test system is SBV. To be noted: 48 h.
Data set [7] concerns SBV. The note with it: 48 h. This is another data set of the same source.

Read-outs that look alike come from different tables or passages of the source. No end group written: not given here.

On to IFGAIWKGISSLL-NH2 [pantinin-2], for which the 50% cytotoxic concentration (CC50) in the data set with CRFK cells turned out to be 82.2 µM; with U-87 MG cells, 82 µM; in the data set with A-72 cells, 90.7 µM; in the data set with BHK-21 cells, 100.8 µM. In addition, the IC50 with SBV [1] amounted to 4.8 µM; with TOSV [2], 3 µM; with TOSV [3] it was 3 µM; in the data set on TOSV [5], 3 µM. Moreover, in data set [4], the “Cytotoxicity at 50 μM and below” value is on record as “neither pantinin-1 nor pantinin-2 induced any detectable cytotoxicity”.

Take GILGKLWEGFKSIV-NH2 [pantinin-1]: the CC50 with CRFK cells was 93.5 µM; in the data set on U-87 MG cells, 114.3 µM; in the data set with A-72 cells it was 93.6 µM; in the data set with BHK-21 cells, 136.6 µM. For the same substance, the 50% inhibitory concentration (IC50) in the data set on SBV [1] was determined as 12.8 µM; in the data set with SBV [6] it was 6 µM; with SBV [7], 5.8 µM. In addition, in data set [4], the “Cytotoxicity at 50 μM and below” value was “neither pantinin-1 nor pantinin-2 induced any detectable cytotoxicity”.

As a reminder, the CC50 is the concentration that lowers cell viability or growth by half. A low value points to greater toxicity to the cells. One may read the IC50 as the concentration that gives 50% inhibition. Read a high IC50 as a need for much substance.
